The values below come from patent US7309817B2, “Plant alpha farnesene synthase and polynucleotides encoding same” (The Horticulture and Food Research Institute of New Zealand …, priority 2002, dated 2007).

The subject of data set [1] is other sesquiterpene synthases. The following applies: other sesquiterpene synthases (Cai et al 2002, Steele et al 1998); read-out: Km reported in the literature; cited from earlier work.
In a further data set the target is T1, alpha-farnesene synthase (Malus domestica, UniProt Q84LB2, A297S/I281F).
T1 construct: a cDNA fragment encoding EST57400 was excised from pBK-CMV57400 using a EcoRI restriction endonuclease site immediately adjacent to the start ATG; His6 (from vector pET-30a) (N); made in house; host or cells: E. coli BL21-CodonPlus-RIL
Format: biochemical. The following applies: for Vrel (%), relative activity due to additions of metal ions: saturating FDP, Mg 7 mM, Mn 150 μM, KCl or NaCl 50 mM. The protocol: Kinetic Studies: For kinetic studies, alpha-farnesene synthase active protein that had been induced in culture and purified as described for protein optimisation was added to a minimal assay buffer containing 50 mM Bis-Tris-Propane (pH 7.5), 10% (v/v) glycerol, 1 mM DTT and 0.1% (v/v) Tween-20. […] One mL assays containing 1-2 μg of protein were overlaid with 0.6 mL pentane and incubated in 1.5 mL microfuge tubes for 2 hours at 30° C. and 150 rpm. All assays were performed in triplicate. Following incubation assays were immediately placed on ice and a 200 μL aliquot of the pentane layer removed for analysis. The aliquots were added to 1.5 mL microfuge tubes containing […] Organic Counting Scintillant (OCS) (Amersham) and vortexed briefly. Scintillation analysis was performed using a Wallac 1409 Liquid Scintillation Counter (^3H efficiency≈70%).
The effect on enzyme activity of metal co-factors with and without salts was also tested. Mg^2+ and Mn^2+ were added in the presence and absence of 50 mM KCL and 50 mM NaCl in all possible combinations. Controls included incubation without enzyme, with enzyme but without metal ion cofactors and with enzyme and cofactors in the presence of 10 mM EDTA.
Kinetic constants were determined from the DPM data by nonlinear regression using the Origin50 graphics package. […] All experiments were carried out at least twice.

In data set [2] the test system is CC(C)=CCC/C(C)=C/CC/C(C)=C/CO[P@@](=O)(O)OP(=O)(O)O. The data set is described as follows: purified protein, by the assay type. The following applies: other: protein stored at -80 C for 9 months; pH 7.5.
A short description of data set [3]: Storage stability of purified recombinant alpha-farnesene synthase at -80 C. Format: physicochemical. Here is the method:
Characterization of alpha-farnesene synthase from bacterial extracts and partially purified alpha-farnesene synthase recombinant protein: Cultures were set up, grown and induced as above. Following induction, cultures were immediately transferred to a 24° C. incubator and allowed to grow for a further 18-20 hours with continuous agitation and then cells harvested by centrifugation (2000×g for 10 min). […] The remainder of the extract (15 ml) was applied to PD-10 gel filtration columns (Amersham-Pharmacia Biotech) pre-equilibrated with either binding or extraction buffer (DTT omitted). Eluent fractions were then pooled and purification of recombinant protein was carried out in a single step using immobilised metal affinity chromatography (IMAC). The eluent was applied to a Hi-Trap Chelating HP column (Amersham-Pharmacia Biotech) charged with Ni^+. Non bound proteins were removed and recombinant protein was eluted following the manufacturer's specifications. […] Headspace volatiles were collected as in the bacterial cultures. Aliquots of the remaining recombinant protein were stored at −80° C. in 20% glycerol until required.
Protein concentration was determined from the extinction coefficient (VectorNTI version 8) and the purified extract adjusted to ˜1 mg protein/mL with His6 elution buffer containing 10% glycerol and 1 mM DTT. […]

With `[Mg+2]` [Mg^2+], the Km in data set [1] was 70 to 150 µM. Moreover, the “inhibition of activity at high Mg2+ concentration” value at alpha-farnesene synthase (25 mM Mg2+) is 23%. Besides, the “Vrel (%), relative activity due to additions of metal ions” value at alpha-farnesene synthase came to 16%.
For the molecule `[Mn+2]` [Mn^2+], the Km in data set [1] was 7 to 30 µM. In addition, the “inhibition of activity at high Mn2+ concentration” value at alpha-farnesene synthase (>800 μM Mn2+) is “at least 50%”. Besides, the “Vrel (%), relative activity due to additions of metal ions” value at alpha-farnesene synthase was determined as 13%.
On to “alpha-farnesene synthase (Malus domestica; A297S/I281F)”, for which the Km in data set [2] was 1.5 µM.

B1: alpha-farnesene synthase: recombinant His-tagged sesquiterpene synthase from apple (Malus domestica Royal Gala) skin, expressed in E. coli (protein, listed as Malus domestica)
chain: MEFRVHLQADNEQKIFQNQMKPEPEASYLINQRRSANYKPNIWKNDFLDQSLISKYDGDEYRKLSEKLIEEVKIYISAETMDLVAKLELIDSVRKLGLANLFEKEIKEALDSIAAIESDNLGTRDDLYGTALHFKILRQHGYKVSQDIFGRFMDEKGTLENHHFAHLKGMLELFEASNLGFEGEDILDEAKASLTLALRDSGHICYPDSNLSRDVVHSLELPSHRRVQWFDVKWQINAYEKDICRVNATLLELAKLNFNVVQAQLQKNLREASRWWANLGFADNLKFARDRLVECFSCAVGVAFEPEHSSFRICLTKVINLVLIIDDVYDIYGSEEELKHFTNAVDRWDSRETEQLPECMKMCFQVLYNTTCEIAREIEEENGWNQVLPQLTKVWADFCKALLVEAEWYNKSHIPTLEEYLRNGCISSSVSVLLVHSFFSITHEGTKEMADFLHKNEDLLYNISLIVRLNNDLGTSAAEQERGDSPSSIVCYMREVNASEETARKNIKGMIDNAWKKVNGKCFTTNQVPFLSSFMNNATNMARVAHSLYKDGDGFGDQEKGPRTHILSLLFQPLVN
modifications: His tag
notes: recombinant His-tagged sesquiterpene synthase from apple (Malus domestica Royal Gala) skin, expressed in E. coli
B1: the “loss of activity on storage” value in data set [3] (stored at -80 C for 9 months) turned out to be 92.5%; in data set [3] (stored in glycerol for 4 weeks at -80 C) it was 15%. Moreover, the “temperature of maximum activity” value with alpha-farnesene synthase (7 mM Mg, 150 μM Mn, 25 μM FDP, FIG. 14) came out at 37 °C.

The Km is the concentration of substrate that gives half-maximal velocity.
